“Also recorded” adds a separate entry of the source.
How the values were obtained:
Type in all cases: cell-based
tyrosinase [1] = experiment: Expression of tyrosinase in Sk-mel-31 cells by Western blotting; conditions: human melanoma cell line; versus control group; FIG. 9
Method: (§1) Cells were cultivated according to the same process as in Experimental Example 6, and centrifuged (100×g) for 10 minutes to harvest the cells. In order to measure the expression of tyrosinase by Western blotting, 100 μg of the cell extract was resolved on 10% SDS-PAGE, transferred to NC, and then, blocked with TBS containing 5% skim milk. Then, it was reacted with a primary antibody diluted to 1:2,500 (monoclonal anti-tyrosine hydroxylase clone Th-2) and a secondary antibody diluted to 1:5,000 (anti-mouse IgG), respectively, and washed with TBS containing 0.2% Tween-20, and then, photosensitized on an X-ray film using an ECL detection kit. Then, OD values were graphed using an image analysis program of LabWork™ (version 4.4.00.0).

tyrosinase [2] = target: T1, tyrosinase (Mus musculus, UniProt P11344); experiment: Activity of tyrosinase in B16F10 cells; conditions: 10 μg to 1 pg, versus control group, FIG. 8
T1 sequence (P11344 19-533): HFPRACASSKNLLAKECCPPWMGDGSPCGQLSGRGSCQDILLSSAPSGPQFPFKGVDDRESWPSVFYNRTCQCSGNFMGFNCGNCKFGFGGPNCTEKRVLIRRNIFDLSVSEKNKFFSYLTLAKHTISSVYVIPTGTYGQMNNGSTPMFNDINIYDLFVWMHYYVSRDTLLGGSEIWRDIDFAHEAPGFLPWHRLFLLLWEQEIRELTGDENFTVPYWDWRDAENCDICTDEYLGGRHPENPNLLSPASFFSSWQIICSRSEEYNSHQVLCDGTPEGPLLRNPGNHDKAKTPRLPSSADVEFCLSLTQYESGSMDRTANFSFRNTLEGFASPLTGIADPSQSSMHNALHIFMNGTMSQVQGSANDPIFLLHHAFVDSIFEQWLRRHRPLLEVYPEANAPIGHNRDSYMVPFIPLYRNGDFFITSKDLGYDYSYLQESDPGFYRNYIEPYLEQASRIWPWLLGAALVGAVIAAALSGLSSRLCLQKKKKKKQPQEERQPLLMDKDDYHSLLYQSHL
Method: (§2) In order to evaluate the effect of promoting black hair formation, the activity of tyrosinase was measured in Sk-mel-31, a human melanoma cell, and B16F10, a mouse melanoma cell. The cells were cultivated in an incubator at 37° C. (5% CO2 and 60% relative humidity) while maintaining a density of 1×10^6 cells/ml for Sk-mel-31 and 2×10^5 cells/ml for B16F10 in RPMI-1640 medium (containing 1% penicillin-streptomycin and 10% fetal bovine serum). The cells were stabilized in the incubator for 24 hours, and the culture medium containing FBS was replaced by FBS-free RPMI-1640. The cells were treated with mixed rare earth elements of 10 μg, 1 μg, 100 ng, 10 ng, 1 ng, 100 pg, […] and 1 pg, respectively, and individual rare earth elements of 10 ng. In order to measure the activity of tyrosinase, the cells were cultivated for a given time, centrifuged (100×g) for 10 minutes, and harvested. […] The cells were placed in an ice bath for one hour, and centrifuged with 40,000×g at 4° C. for 20 minutes to obtain a cell extract. 130 μl of 5 mM L-DOPA (L-3,4-dihydroxyphenylalanine) and 120 μl of 25 mM MBTH (3-methyl-2-benzothiazolinone hydrazone) were added to 250 μl of an analysis buffer containing 100 mM potassium phosphate (pH 7.1), 4% N,N-dimethylformamide and 0.1% (v/v) Triton X-100, and reacted in a thermostat at 37° C. for 5 minutes, and then, 100 μg of the cell extract was added thereto, and further reacted for 2 hours. Then, 500 μl of 1 M perchloric acid was added thereto and the mixture was centrifuged with 9,000×g at room temperature for 20 minutes. Then, the supernatant was taken and absorbance was measured at 505 nm.

tyrosinase [3] = target: T2, tyrosinase (Homo sapiens, UniProt P14679); experiment: Activity of tyrosinase in Sk-mel-31 cells; conditions: 10 μg to 1 pg, versus control group, FIG. 7
T2 sequence (P14679 19-529): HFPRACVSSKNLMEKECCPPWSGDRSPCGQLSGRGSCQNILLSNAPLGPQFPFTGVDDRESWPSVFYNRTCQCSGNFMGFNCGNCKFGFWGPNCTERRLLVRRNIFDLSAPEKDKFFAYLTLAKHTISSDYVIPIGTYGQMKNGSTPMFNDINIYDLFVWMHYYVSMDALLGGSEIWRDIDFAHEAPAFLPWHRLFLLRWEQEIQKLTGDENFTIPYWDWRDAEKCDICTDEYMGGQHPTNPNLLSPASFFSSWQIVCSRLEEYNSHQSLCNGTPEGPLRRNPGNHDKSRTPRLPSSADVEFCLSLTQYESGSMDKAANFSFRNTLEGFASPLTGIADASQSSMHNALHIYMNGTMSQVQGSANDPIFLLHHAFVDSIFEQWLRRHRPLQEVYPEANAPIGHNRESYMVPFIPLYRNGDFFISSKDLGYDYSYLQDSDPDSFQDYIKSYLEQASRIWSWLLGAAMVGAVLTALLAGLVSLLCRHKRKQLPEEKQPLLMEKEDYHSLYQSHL
Method: as §2

[4] = test system: Mouse embryo fibroblasts NIH 3T3; experiment: MTT cell proliferation assay in NIH 3T3 fibroblasts
Method: Mouse embryo fibroblasts NIH 3T3 were cultivated in an incubator at 37° C. ([…], 5% CO2 and 60% humidity) while maintaining a density of 2×10^6 or 4×10^6 cells/ml in Dulbecco's modified Eagle's media (DMEM) supplemented with 10% fetal bovine serum (FBS) and 1% penicillin-streptomycin. Cell proliferation was measured by using MTT [3-(3,5-dimethyl-thiazol-2-yl)-2,5-diphenyltetrazolium bromide] assay. For MTT assay, the cells were plated in a 96-well plate at 2×10^3 cells/ml per well, and treated with a culture medium supplemented with 10% FBS. The cells were stabilized in the incubator for 24 hours, the culture medium supplemented with FBS was replaced by FBS-free DMEM, and the cells were treated with mixed rare earth elements of 10 μg, 1 μg, 100 ng, 10 ng, 1 ng, 100 pg, 10 pg and 1 pg, respectively, and individual rare earth elements of 10 ng. Then, the cells were cultivated for a given time, 50 μl per well of MTT (2 mg/l ml sterilized distilled water) was added thereto, and the mixture was reacted for 4 hours. The reaction mixture was treated with DMSO (dimethyl sulfoxide) and shaken for 30 minutes. Absorbance was measured at 540 nm using an ELISA reader (550, Bio-rad).

[5] = test system: B16F10, a mouse melanoma cell; experiment: Melanin production in B16F10 cells; conditions: mouse melanoma cell line; versus control group; FIG. 10
Method: (§3) Cells were cultivated according to the same process as in Experimental Example 6, and centrifuged (100×g) for 10 minutes to harvest the cells. In order to measure the production of melanin, 200 μg of the cell extract was added to 1 N NaOH (total 1 ml), allowed to stand at room temperature for 30 minutes, and then, absorbance was measured at 400 nm.
(§4) In order to measure the production of melanin, the cells were cultivated and harvested according to the same process as that of Experimental Example 6, and the production of melanin was measured according to the same process as that of Experimental Example 8.

tyrosinase [6] = experiment: Expression of tyrosinase in B16F10 cells by Western blotting; conditions: mouse melanoma cell line; versus control group; FIG. 9
Method: as §1

[7] = test system: Sk-mel-31, a human melanoma cell; experiment: Melanin production in Sk-mel-31 cells; conditions: human melanoma cell line; versus control group; FIG. 10
Method: as §3, §4

## [Eu] [Eu, europium]
Tyrosinase [1]
  expression of tyrosinase: substantially the same effect
Tyrosinase [2]
  tyrosinase activity: increased; also recorded: substantially the same effect as mixed rare earth elements
Tyrosinase [3]
  tyrosinase activity: increased; also recorded: substantially the same effect as mixed rare earth elements
[4]; 10 μg to 1 pg, FIG. 1
  cell proliferation compared with the non-treated group: increased
[5]
  melanin production: substantially the same effect
Tyrosinase [6]
  expression of tyrosinase: substantially the same effect
[7]
  melanin production: substantially the same effect

## [Gd] [Gd, gadolinium]
Tyrosinase [1]
  expression of tyrosinase: relatively lower effect
Tyrosinase [2]
  tyrosinase activity: increased; also recorded: relatively lower effect
Tyrosinase [3]
  tyrosinase activity: increased; also recorded: relatively lower effect
[4]; 10 μg to 1 pg, FIG. 1
  cell proliferation compared with the non-treated group: increased
[4]; each element of 10 ng, FIG. 2
  cell proliferation compared with the non-treated group: relatively inferior effect
[5]
  melanin production: relatively lower effect
Tyrosinase [6]
  expression of tyrosinase: relatively lower effect
[7]
  melanin production: relatively lower effect

## [Lu] [Lu, lutetium]
Tyrosinase [1]
  expression of tyrosinase: relatively lower effect
Tyrosinase [2]
  tyrosinase activity: relatively lower effect
Tyrosinase [3]
  tyrosinase activity: relatively lower effect
[4]; each element of 10 ng, FIG. 2
  cell proliferation compared with the non-treated group: relatively inferior effect
[5]
  melanin production: relatively lower effect
Tyrosinase [6]
  expression of tyrosinase: relatively lower effect
[7]
  melanin production: relatively lower effect

## [Sm] [Sm, samarium]
Tyrosinase [1]
  expression of tyrosinase: relatively lower effect
Tyrosinase [2]
  tyrosinase activity: relatively lower effect
Tyrosinase [3]
  tyrosinase activity: relatively lower effect
[4]; each element of 10 ng, FIG. 2
  cell proliferation compared with the non-treated group: relatively inferior effect
[5]
  melanin production: relatively lower effect
Tyrosinase [6]
  expression of tyrosinase: relatively lower effect
[7]
  melanin production: relatively lower effect

## [La] [La, lanthanum]
Tyrosinase [1]
  expression of tyrosinase: relatively lower effect
Tyrosinase [2]
  tyrosinase activity: increased; also recorded: relatively lower effect
Tyrosinase [3]
  tyrosinase activity: increased; also recorded: relatively lower effect
[4]; 10 μg to 1 pg, FIG. 1
  cell proliferation compared with the non-treated group: increased
[4]; each element of 10 ng, FIG. 2
  cell proliferation compared with the non-treated group: relatively inferior effect
[5]
  melanin production: relatively lower effect
Tyrosinase [6]
  expression of tyrosinase: relatively lower effect
[7]
  melanin production: relatively lower effect

## [Nd] [Nd, neodymium]
Tyrosinase [1]
  expression of tyrosinase: relatively lower effect
Tyrosinase [2]
  tyrosinase activity: relatively lower effect
Tyrosinase [3]
  tyrosinase activity: relatively lower effect
[4]; each element of 10 ng, FIG. 2
  cell proliferation compared with the non-treated group: relatively inferior effect
[5]
  melanin production: relatively lower effect
Tyrosinase [6]
  expression of tyrosinase: relatively lower effect
[7]
  melanin production: relatively lower effect
